Source: patent publication EP1944294A1, “Gamma-polymorph of a substituted pyrazoline, its preparation and use as medicaments” (Laboratorios del Dr. Esteve S.A., priority 2007, dated 2008)

Target: recombinant human cannabinoid 1 receptor (CB1) (Homo sapiens, UniProt P21554)
Conditions: compound at 1 µM; 100 % = difference between maximal effect of WIN 55,212-2 alone and WIN 55,212-2 plus Rimonabant (1 µM)
Description: Chinese hamster ovary (CHO) cells stably expressing recombinant human cannabinoid 1 receptor (CB1) are cultured in nutrient mixture Ham's F 12 supplemented with 10 % heat-inactivated fetal bovine serum, 2 mM L-glutamine, 50 U/ml penicillin, 50 U/ml streptomycin and 0.5 mg/ml geneticin. In order to obtain cells, culture flasks are washed twice with phosphate buffered saline and scraped. Then, cells are collected by centrifugation (200 x g, 10 min) and stored dry at -80°C. Cells are homogenized in ice-cold 20 mM HEPES, 10 mM EDTA (pH 7.5) and centrifuged at 40,000 x g for 15 min at 4°C. The membrane pellet is resuspended in 20 mM HEPES, 0.1 1 mM EDTA (pH 7.5) and centrifuged for 15 min at 4°C. The final membrane pellet is resuspended in 20 mM HEPES, 0.1 1 mM EDTA (pH 7.5), and divided in aliquots and stored at -80°C until use.
The reaction is performed in 96-well plates. Membranes (15 µg protein/well) are incubated for 60 min at 30 °C in buffer (50 mM HEPES, 100 mM KCI, 5 mM MgCl2,1 mM EDTA, 0.1 % wt/vol bovine serum albumin, 5 µM GDP, saponin (10 µg/ml), 0.5 nM [^35S]GTPγS, pH 7.4) with compound at a final concentration of 1 µM in either the absence or presence of agonist WIN 55,212-2 between 3 nM and 3 µM. […] Radioactivity is determined using a Wallac Microbeta Trilux. […]

recombinant human cannabinoid 1 receptor (CB1), sequence (P21554 whole entry): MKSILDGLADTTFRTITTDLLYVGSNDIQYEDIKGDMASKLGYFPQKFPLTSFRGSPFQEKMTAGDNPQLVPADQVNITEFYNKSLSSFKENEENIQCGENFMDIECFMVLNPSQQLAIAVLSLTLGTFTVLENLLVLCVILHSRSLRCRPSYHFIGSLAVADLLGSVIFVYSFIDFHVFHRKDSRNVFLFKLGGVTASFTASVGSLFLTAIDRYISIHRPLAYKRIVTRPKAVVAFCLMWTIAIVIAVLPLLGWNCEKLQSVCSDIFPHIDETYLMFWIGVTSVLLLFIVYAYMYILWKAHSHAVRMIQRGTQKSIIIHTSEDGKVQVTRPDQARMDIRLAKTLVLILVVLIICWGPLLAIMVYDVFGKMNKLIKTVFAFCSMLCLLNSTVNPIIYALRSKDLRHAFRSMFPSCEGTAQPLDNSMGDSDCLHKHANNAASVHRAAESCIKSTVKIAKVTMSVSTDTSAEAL

O=C(NN1CCCCC1)C1=NN(c2ccc(Cl)cc2Cl)[C@@H](c2ccc(Cl)cc2)C1 [Compound A, (R)-N-piperidinyl-5-(4-chlorophenyl)-1-(2,4-dichlorophenyl)-4,5-dihydro-1H-pyrazole-3-carboxamide]
Antagonism: 106%
